Measurements taken from US20180265515A1 (Genentech, Inc., priority 2015, published 2018).

How the values were obtained:
[1] = molecular target: T1, isolated recombinant JAK1 kinase domain (Homo sapiens, UniProt P23458); test: JAK1 enzyme assay (Caliper LabChip, Ki); format: biochemical; conditions: recombinant JAK1 kinase domain, 25 μM ATP
T1 construct: The activity of the isolated recombinant JAK1 and JAK2 kinase domain was measured
Procedure, shortened: (§1)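 Values are Ki estimates derived with the Morrison tight-binding equation modified for competition with ATP. Activity of the recombinant kinase domains was measured as peptide phosphorylation on a Caliper LabChip after a 30-minute, 22° C reaction terminated by EDTA.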

[2] = molecular target: T2, isolated recombinant JAK2 kinase domain (Homo sapiens, UniProt O60674); test: JAK2 enzyme assay (Caliper LabChip, Ki); format: biochemical; conditions: 25 μM ATP
T2 construct: The activity of the isolated recombinant JAK1 and JAK2 kinase domain was measured
Procedure, shortened: as §1

[3] = tested on: JAK1-dependent STAT6 phosphorylation downstream of IL-13 stimulation in BEAS-2B human bronchial epithelial cells; test: JAK1 pathway assay in BEAS-2B cells (IL-13 stimulated STAT6 phosphorylation, MSD); format: cell-based; conditions: read-out: P-STAT6 BEAS2B + IL13 IC50
Procedure, shortened: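 BEAS-2B human bronchial epithelial cells, plated the day before in complete growth medium, were preincubated with compound for 1 hr at 37° C (0.2% DMSO final), then stimulated with IL-13 at its EC90 for 15 min. STAT6 phosphorylation in lysates was read by MSD; EC50 was taken as 50% inhibition versus DMSO control.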

T1 sequence (P23458 875-1153 limits assumed): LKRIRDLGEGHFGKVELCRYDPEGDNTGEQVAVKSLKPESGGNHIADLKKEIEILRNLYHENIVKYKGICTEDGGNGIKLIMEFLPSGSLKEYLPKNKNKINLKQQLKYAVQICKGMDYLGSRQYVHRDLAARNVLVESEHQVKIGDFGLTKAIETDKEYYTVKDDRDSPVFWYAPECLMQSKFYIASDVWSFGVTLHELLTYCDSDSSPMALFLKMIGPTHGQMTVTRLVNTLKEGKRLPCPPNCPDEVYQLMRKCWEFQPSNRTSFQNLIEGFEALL
T2 sequence (O60674 849-1124 limits assumed): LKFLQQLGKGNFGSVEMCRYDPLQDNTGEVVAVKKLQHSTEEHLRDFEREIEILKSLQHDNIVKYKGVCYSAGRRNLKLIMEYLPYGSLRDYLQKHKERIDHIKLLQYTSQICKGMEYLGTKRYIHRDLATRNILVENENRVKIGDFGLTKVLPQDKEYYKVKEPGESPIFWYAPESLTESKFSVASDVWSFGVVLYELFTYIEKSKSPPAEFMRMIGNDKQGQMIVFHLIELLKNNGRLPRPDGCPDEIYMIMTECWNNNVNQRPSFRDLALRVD

CC(C)Sc1ccc(OC(F)F)c(-c2nn(CCN)cc2NC(=O)c2cnn3cccnc23)c1 [Example 112, N-[1-(2-aminoethyl)-3-[2-(difluoromethoxy)-5-isopropylsulfanyl-phenyl]pyrazol-4-yl]pyrazolo[1,5-a]pyrimidine-3-carboxamide]
Ki [1]: 0.39 nM
Ki [2]: 0.39 nM
IC50 [3]: 18 nM

CC(C)Sc1ccc(OC(F)F)c(-c2nn(C[C@H]3CCCN3)cc2NC(=O)c2cnn3cccnc23)c1 [Example 113, N-[3-[2-(difluoromethoxy)-5-isoproplsulfanyl-phenyl]-1-[[(2R)-pyrrolidin-2-yl]methyl]pyrazol-4-yl]pyrazolo[1,5-a]pyrimidine-3-carboxamide]
Ki [1]: 0.64 nM
Ki [2]: 0.78 nM
IC50 [3]: 20 nM

CC(C)Sc1ccc(OC(F)F)c(-c2nn(CC(=O)N3CCC(CN4CCN(CC(=O)N(C)C)CC4)CC3)cc2NC(=O)c2cnn3cccnc23)c1 [Example 114, N-[3-[2-(difluoromethoxy)-5-isopropylsulfanyl-phenyl]-1-[2-[4-[[4-[2-(dimethylamino)-2-oxo-ethyl]piperazin-1-yl]methyl]-1-piperidyl]-2-oxo-ethyl]pyrazol-4-yl]pyrazolo[1,5-a]pyrimidine-3-carboxamide]
Ki [1]: 1.6 nM
Ki [2]: 3.9 nM
IC50 [3]: 55 nM

CC(C)Sc1ccc(OC(F)F)c(-c2nn(CC(=O)N3CCC(NCC4(C#N)CC4)CC3)cc2NC(=O)c2cnn3cccnc23)c1 [Example 115, N-[1-[2-[4-[(1-cyanocyclopropyl)methylamino]-1-piperidyl]-2-oxo-ethyl]-3-[2-(difluoromethoxy)-5-isopropylsulfanyl-phenyl]pyrazol-4-yl]pyrazolo[1,5-a]pyrimidine-3-carboxamide]
Ki [1]: 0.65 nM
Ki [2]: 1.6 nM
IC50 [3]: 34 nM

COCCN1CCN(C(=O)Cn2cc(NC(=O)c3cnn4cccnc34)c(-c3cc(SC(C)C)ccc3OC(F)F)n2)CC1 [Example 116, N-[3-[2-(difluoromethoxy)-5-isopropylsulfanyl-phenyl]-1-[2-[4-(2-methoxyethyl)piperazin-1-yl]-2-oxo-ethyl]pyrazol-4-yl]pyrazolo[1,5-a]pyrimidine-3-carboxamide]
Ki [1]: 0.51 nM
Ki [2]: 1 nM
IC50 [3]: 26 nM

CC(C)Sc1ccc(OC(F)F)c(-c2nn(CC(=O)N3CCN(C)CC3)cc2NC(=O)c2cnn3cccnc23)c1 [Example 117, N-[3-[2-(difluoromethoxy)-5-isopropylsulfanyl-phenyl]-1-[2-(4-methylpiperazin-1-yl)-2-oxo-ethyl]pyrazol-4-yl]pyrazolo[1,5-a]pyrimidine-3-carboxamide]
Ki [1]: 0.7 nM
Ki [2]: 1.4 nM
IC50 [3]: 21 nM

CC(C)Sc1ccc(OC(F)F)c(-c2nn(CC(=O)N3CCC(N4CCN(C)CC4)CC3)cc2NC(=O)c2cnn3cccnc23)c1 [Example 118, N-[3-[2-(difluoromethoxy)-5-isopropylsulfanyl-phenyl]-1-[2-[4-(4-methylpiperazin-1-yl)-1-piperidyl]-2-oxo-ethyl]pyrazol-4-yl]pyrazolo[1,5-a]pyrimidine-3-carboxamide]
Ki [1]: 0.6 nM
Ki [2]: 1.8 nM
IC50 [3]: 40 nM

CC(C)Sc1ccc(OC(F)F)c(-c2nn(CC(=O)N3CCN(C4CCSCC4)CC3)cc2NC(=O)c2cnn3cccnc23)c1 [Example 119, N-[3-[2-(difluoromethoxy)-5-isopropylsulfanyl-phenyl]-1-[2-oxo-2-(4-tetrahydrothiopyran-4-ylpiperazin-1-yl)ethyl]pyrazol-4-yl]pyrazolo[1,5-a]pyrimidine-3-carboxamide]
Ki [1]: 0.47 nM
Ki [2]: 0.96 nM
IC50 [3]: 30 nM

CC(C)Sc1ccc(OC(F)F)c(-c2nn(CC(=O)N3CCC(NCC(C)(C)C#N)CC3)cc2NC(=O)c2cnn3cccnc23)c1 [Example 120, N-[1-[2-[4-[(2-cyano-2-methyl-propyl)amino]-1-piperidyl]-2-oxo-ethyl]-3-[2-(difluoromethoxy)-5-isopropylsulfanyl-phenyl]pyrazol-4-yl]pyrazolo[1,5-a]pyrimidine-3-carboxamide]
Ki [1]: 0.4 nM
Ki [2]: 1.2 nM
IC50 [3]: 27 nM

CCN1CCN(C(=O)Cn2cc(NC(=O)c3cnn4cccnc34)c(-c3cc(SC(C)C)ccc3OC(F)F)n2)CC1 [Example 121, N-[3-[2-(difluoromethoxy)-5-isopropylsulfanyl-phenyl]-1-[2-(4-ethylpiperazin-1-yl)-2-oxo-ethyl]pyrazol-4-yl]pyrazolo[1,5-a]pyrimidine-3-carboxamide]
Ki [1]: 0.7 nM
Ki [2]: 1.3 nM
IC50 [3]: 31 nM

CC(C)Sc1ccc(OC(F)F)c(-c2nn(CC(=O)N3CCN(CCOCCO)CC3)cc2NC(=O)c2cnn3cccnc23)c1 [Example 122, N-[3-[2-(difluoromethoxy)-5-isopropylsulfanyl-phenyl]-1-[2-[4-[2-(2-hydroxyethoxy)ethyl]piperazin-1-yl]-2-oxo-ethyl]pyrazol-4-yl]pyrazolo[1,5-a]pyrimidine-3-carboxamide]
Ki [1]: 0.41 nM
Ki [2]: 0.85 nM
IC50 [3]: 42 nM

CC(C)Sc1ccc(OC(F)F)c(-c2nn(CC(=O)N3CCC(N(C)CC4OCCO4)CC3)cc2NC(=O)c2cnn3cccnc23)c1 [Example 123, N-[3-[2-(difluoromethoxy)-5-isopropylsulfanyl-phenyl]-1-[2-[4-[1,3-dioxolan-2-ylmethyl(methyl)amino]-1-piperidyl]-2-oxo-ethyl]pyrazol-4-yl]pyrazolo[1,5-a]pyrimidine-3-carboxamide]
Ki [1]: 0.79 nM
Ki [2]: 2 nM
IC50 [3]: 38 nM

CC(C)Sc1ccc(OC(F)F)c(-c2nn(CC(=O)N3CC4CCCNC4C3)cc2NC(=O)c2cnn3cccnc23)c1 (stereo not drawn) [Example 124, N-[1-[2-(1,2,3,4,4a,5,7,7a-octahydropyrrolo[3,4-b]pyridin-6-yl)-2-oxo-ethyl]-3-[2-(difluoromethoxy)-5-isopropylsulfanyl-phenyl]pyrazol-4-yl]pyrazolo[1,5-a]pyrimidine-3-carboxamide]
Ki [1]: 0.92 nM
Ki [2]: 1.1 nM
IC50 [3]: 59 nM

CC(C)Sc1ccc(OC(F)F)c(-c2nn(CC(=O)N3CCN(C4CCOCC4)CC3)cc2NC(=O)c2cnn3cccnc23)c1 [Example 125, N-[3-[2-(difluoromethoxy)-5-isopropylsulfanyl-phenyl]-1-[2-oxo-2-(4-tetrahydropyran-4-ylpiperazin-1-yl)ethyl]pyrazol-4-yl]pyrazolo[1,5-a]pyrimidine-3-carboxamide]
Ki [1]: 0.47 nM
Ki [2]: 0.94 nM
IC50 [3]: 17 nM

CC(C)Sc1ccc(OC(F)F)c(-c2nn(CC(=O)N3CCN(CCCO)CC3)cc2NC(=O)c2cnn3cccnc23)c1 [Example 126, N-[3-[2-(difluoromethoxy)-5-isopropylsulfanyl-phenyl]-1-[2-[4-(3-hydroxypropyl)piperazin-1-yl]-2-oxo-ethyl]pyrazol-4-yl]pyrazolo[1,5-a]pyrimidine-3-carboxamide]
Ki [1]: 0.37 nM
Ki [2]: 0.84 nM
IC50 [3]: 43 nM

CC(C)Sc1ccc(OC(F)F)c(-c2nn(CC(=O)N3CCN(CC4(C)COC4)CC3)cc2NC(=O)c2cnn3cccnc23)c1 [Example 127, N-[3-[2-(difluoromethoxy)-5-isopropylsulfanyl-phenyl]-1-[2-[4-[(3-methyloxetan-3-yl)methyl]piperazin-1-yl]-2-oxo-ethyl]pyrazol-4-yl]pyrazolo[1,5-a]pyrimidine-3-carboxamide]
Ki [1]: 0.48 nM
Ki [2]: 0.97 nM
IC50 [3]: 35 nM

CC(C)Sc1ccc(OC(F)F)c(-c2nn(CC(=O)N3CCN(C4CCOC4)CC3)cc2NC(=O)c2cnn3cccnc23)c1 (stereo not drawn) [Example 128, N-[3-[2-(difluoromethoxy)-5-isopropylsulfanyl-phenyl]-1-[2-oxo-2-(4-tetrahydrofuran-3-ylpiperazin-1-yl)ethyl]pyrazol-4-yl]pyrazolo[1,5-a]pyrimidine-3-carboxamide]
Ki [1]: 0.58 nM
Ki [2]: 1.2 nM
IC50 [3]: 47 nM

CC(C)Sc1ccc(OC(F)F)c(-c2nn(CC(=O)N3CCC(N4CC(C#N)C4)CC3)cc2NC(=O)c2cnn3cccnc23)c1 [Example 129, N-(1-[2-[4-(3-cyanoazetidin-1-yl)piperidin-1-yl]-2-oxoethyl]-3-[2-(difluoromethoxy)-5-(propan-2-ylsulfanyl)phenyl]-1H-pyrazol-4-yl)pyrazolo[1,5-a]pyrimidine-3-carboxamide]
Ki [1]: 0.42 nM
Ki [2]: 0.99 nM
IC50 [3]: 26 nM

CC(C)Sc1ccc(OC(F)F)c(-c2nn(CC(=O)N3CCC(N4CC5CC(C4)O5)CC3)cc2NC(=O)c2cnn3cccnc23)c1 [Example 130, N-[3-[2-(difluoromethoxy)-5-isopropylsulfanyl-phenyl]-1-[2-[4-(6-oxa-3-azabicyclo[3.1.1]heptan-3-yl)-1-piperidyl]-2-oxo-ethyl]pyrazol-4-yl]pyrazolo[1,5-a]pyrimidine-3-carboxamide]
Ki [1]: 0.57 nM
Ki [2]: 1 nM
IC50 [3]: 19 nM

CC(C)Sc1ccc(OC(F)F)c(-c2nn(CC(=O)N3CCN(CCO)CC3)cc2NC(=O)c2cnn3cccnc23)c1 [Example 131, N-[3-[2-(difluoromethoxy)-5-isopropylsulfanyl-phenyl]-1-[2-[4-(2-hydroxyethyl)piperazin-1-yl]-2-oxo-ethyl]pyrazol-4-yl]pyrazolo[1,5-a]pyrimidine-3-carboxamide]
Ki [1]: 0.41 nM
Ki [2]: 0.8 nM
IC50 [3]: 30 nM
